Values joined by “and” are separate entries in the source; they are usually repeats but may differ in a detail not shown here. Identical values can stand only once.
Columns and labels:
[1] = system: hGal1; parameters: method as in PMID 23124203; details: in the presence of λ5-UR peptide of pre-BCR; cited from earlier work
[2] = system: hGal1; parameters: method as in PMID 12223272; details: LN1 versus LN2; cited from earlier work
[3] = target: T1, human galectin-7 (hGal7) (Homo sapiens, UniProt P47929); assay: Fluorescence polarization (FP)-based competition binding assay; details: for Kd: fluorescence anisotropy at 277 K, competition with LN2-FITC probe, read-out: Dissociation constant Kd (Kd FP)
T1 construct: 7 (residues 1–136); 6xHis (C); made in house; host or cells: Escherichia coli BL21 (DE3)
Experimental: (§1) The measurement of FP-based assay is based on the rotation speed of a fluorophore-containing compound bound to the protein counterpart (e.g. galectins in this study). The fluorophore rotates at a slower rate than when it is unbound, and the resulting fluorescence polarization is higher. In this study we carried out all measurements according to reported procedures. […] All the measurements were conducted in Tris buffer (12.5 mM, pH 7.4) with 200 mM NaCl and 5 mM β-mercaptoethanol at 4 °C. Data plotting, nonlinear regression analysis, and curve construction was done by Prism 5.0 software (GraphPad, San Diego, CA).
(§2) The measured anisotropy value with competitor (Acompetitor) is used to calculate the amount of galectin-bound probe [PG] according to equation:
(§3) [PG]=[(Acompetitor−A0)∕(Amax−A0)]×[P]total.−

[4] = target: T2, human galectin-3 (hGal3) (Homo sapiens, UniProt P17931); assay: as above; details: for Kd: fluorescence anisotropy at 277 K, competition with LN2-FITC probe, read-out: Dissociation constant Kd (Kd FP)
T2 construct: the full-length hGal1 (residues 1–135), 3 (residues 1–250); 6xHis (N); made in house; host or cells: Escherichia coli BL21 (DE3)
Experimental: as §1, §2, §3

[5] = target: T3, human galectin-1 (hGal1) (Homo sapiens, UniProt P09382); assay: as above; details: for Kd: fluorescence anisotropy at 277 K, competition with LN2-FITC probe, read-out: Dissociation constant Kd (Kd FP)
T3 construct: the full-length hGal1 (residues 1–135); 6xHis (N); made in house; host or cells: Escherichia coli BL21 (DE3)
Experimental: as §1, §2, §3

[6] = system: rat galectin-2; parameters: method as in PMID 12223272; details: cited from earlier work
[7] = system: CRD domain of hGal3; parameters: method as in PMID 12223272; details: CRD domain used instead of full-length hGal3; LN1 versus LN2; cited from earlier work
[8] = target: T1, human galectin-7 (hGal7); assay: Biolayer interferometry, LN1/LN2 binding affinity; details: for Kd: Biolayer Interferometry at 300 K, steady-state, read-out: Dissociation constant Kd (Kd BI)
From the text: (§4) Using a standard PCR-based cloning strategy, the coding region of the full-length hGal1 (residues 1–135), 3 (residues 1–250), 7 (residues 1–136) and CRD domain of hGal3 (residues 113–250) were generated and inserted into modified pET-15b (hGal1, hGal3 and hGal3-CRD) or pET-28a (hGal7) vector (Novagen) with in-frame N- and C-terminal 6xHis-tag, respectively. QuikChange mutagenesis method (Agilent Technologies) was applied to replace the corresponding codons of residues Glu165 and Arg186 in full-length hGal3 with Ala codon to allow the expression of mutant proteins hGal3-E165A and hGal3-R186A. All the wild type and mutated proteins were produced in Escherichia coli BL21 (DE3), with 0.5 mM IPTG induction for 16 h at 20 °C. Recombinant proteins were purified by Ni^2+-affinity and size-exclusion chromatography to homogeneity. Purified proteins were then stored in gel-filtration buffer (25 mM Tris-HCl pH8.0, 300 mM NaCl and 5 mM β-mercaptoethanol) and concentrated to ~ 4, 20 and 9 mg/ml as determined by the method of Bradford for both Biolayer interferometry experiments and crystallization trials, respectively.
(§5) Specifically, biotinylated galectins were prepared according to the standard protocol (provided by FortéBio), and adjusted to final concentration of 1 μM in assay buffer condition (50 mM Tris-HCl pH 7.5, 300 mM NaCl and 5 mM β-mercaptoethanol). Biotinylated galectins were then immobilized on Super Streptavidin Biosensors (FortéBio, Inc.), while free streptavidin sites on biosensor were then blocked by incubation with biocytin (10 mg/ml) to avoid non-specific interactions. […] Measurements were followed by 120 sec baseline step, 60 sec association step and 200 sec dissociation step. Baseline and dissociation steps were carried out in assay buffer only. All the data were processed and calculated using Fortebio software and the steady-state K d values were derived from equilibrium responses (S1 Fig) and summarized in Table 1. Two additional parallel Super Streptavidin biosensors were coated with biotinylated galectin and biocytin, separately, and only incubated with assay buffer as double reference controls.

[9] = target: T4, human galectin-3 (hGal3, full-length) (Homo sapiens, UniProt P17931); assay: Biolayer interferometry, LN1/LN2 binding affinity; details: for Kd: Biolayer Interferometry at 300 K, steady-state, read-out: Dissociation constant Kd (Kd BI)
T4 construct: the full-length hGal1 (residues 1–135), 3 (residues 1–250); 6xHis (N); made in house; host or cells: Escherichia coli BL21 (DE3)
From the text: as §4, §5

[10] = target: T3, human galectin-1 (hGal1); assay: Biolayer interferometry, LN1/LN2 binding affinity; details: for Kd: Biolayer Interferometry at 300 K, steady-state, read-out: Dissociation constant Kd (Kd BI)
From the text: as §4, §5

[11] = target: T5, hGal3-E165A (Homo sapiens, UniProt P17931, E165A); assay: Biolayer interferometry, LN1/LN2 binding affinity; details: for Reduction of binding affinity of hGal3-E165A: hGal3-E165A versus wild-type hGal3, from Table 1 Kd BI; for Kd: Biolayer Interferometry at 300 K, steady-state, read-out: Dissociation constant Kd (Kd BI)
T5 construct: the full-length hGal1 (residues 1–135), 3 (residues 1–250); 6xHis (N); made in house; host or cells: Escherichia coli BL21 (DE3)
From the text: as §4, §5

[12] = target: T6, hGal3-R186A (Homo sapiens, UniProt P17931, R186A); assay: Biolayer interferometry, LN1/LN2 binding affinity; details: hGal3-R186A mutant
T6 construct: the full-length hGal1 (residues 1–135), 3 (residues 1–250); 6xHis (N); made in house; host or cells: Escherichia coli BL21 (DE3)
From the text: as §4, §5

[13] = system: hGal7; parameters: method as in PMID 12223272; details: cited from earlier work
[14] = system: hGal3; parameters: method as in PMID 21949831; details: cited from earlier work
[15] = system: hGal1; parameters: method as in PMID 21949831; details: cited from earlier work
[16] = based on Kd FP values, LN1 versus LN2
[17] = based on Kd BI values, LN1 versus LN2

T4 sequence (P17931 whole entry, the tested form may be a part): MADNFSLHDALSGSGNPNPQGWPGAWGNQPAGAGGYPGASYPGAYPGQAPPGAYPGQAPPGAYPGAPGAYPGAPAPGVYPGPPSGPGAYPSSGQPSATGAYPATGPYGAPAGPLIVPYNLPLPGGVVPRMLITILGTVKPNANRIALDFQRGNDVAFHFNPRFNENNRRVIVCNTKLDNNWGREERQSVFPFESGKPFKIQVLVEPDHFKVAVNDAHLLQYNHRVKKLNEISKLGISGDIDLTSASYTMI
T2 sequence (P17931 whole entry, the tested form may be a part): as above
T5 sequence (P17931 whole entry E165A, the tested form may be a part): as the sequence (P17931 whole entry, the tested form may be a part) above, with E165A counted along it
T3 sequence (P09382 whole entry, the tested form may be a part): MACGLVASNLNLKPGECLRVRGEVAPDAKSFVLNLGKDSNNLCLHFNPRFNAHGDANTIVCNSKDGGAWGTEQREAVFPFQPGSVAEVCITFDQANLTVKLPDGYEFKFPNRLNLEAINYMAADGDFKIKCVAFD
T1 sequence (P47929 whole entry, the tested form may be a part): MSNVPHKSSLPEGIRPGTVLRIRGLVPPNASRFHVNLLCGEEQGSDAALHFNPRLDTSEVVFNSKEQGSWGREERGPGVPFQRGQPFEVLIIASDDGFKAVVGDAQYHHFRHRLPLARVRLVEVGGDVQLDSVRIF
T6 sequence (P17931 whole entry R186A, the tested form may be a part): as the sequence (P17931 whole entry, the tested form may be a part) above, with R186A counted along it

SMILES	Kd [3]	Kd [4] [µM]	Kd [5] [µM]	Kd [8]	Kd [9]	Kd [10]	Reduction of binding affinity of hGal3-E165A [11] [fold]	Kd ([11]; hGal3-E165A) [µM]	Binding ability [12]	also measured
CC(=O)N[C@H]1[C@H](O[C@H]2[C@@H](O)[C@@H](CO)O[C@@H](O[C@H]3[C@H](O)[C@@H](O)C(O)O[C@@H]3CO)[C@@H]2O)O[C@H](CO)[C@@H](O[C@@H]2O[C@H](CO)[C@H](O)[C@H](O)[C@H]2O)[C@@H]1O (mixture of isomers) [Lacto-N-neotetraose (LNnT), Lacto-N-neotetraose]										Decrease of hGal1 binding [1]: 3 fold
CC(=O)NC1C(O)OC(CO)C(O)C1OC1OC(CO)C(O)C(O)C1O (stereo not shown) [LN1, Galβ1-3GlcNAc]	6.6 µM and 6.63 µM	1.44	6.74	~270 µM and 270 µM	~93 µM and 93 µM	~340 µM and 340 µM	2.5	230	lose its binding ability	LN1/LN2 ratio, previous study [2]: 0.79; LN1/LN2 ratio (Kd LN1/Kd LN2) [3, 16]: 2.97; LN1/LN2 ratio (Kd LN1/Kd LN2) [4, 16]: 0.23; LN1/LN2 ratio (Kd LN1/Kd LN2) [5, 16]: 0.53; LN1/LN2 binding preference [6]: prominent LN1-preferred binding activity; LN1/LN2 ratio, previous study [7]: 0.65 ^5; LN1/LN2 ratio (Kd LN1/Kd LN2) [8, 17]: 1.52; LN1/LN2 ratio (Kd LN1/Kd LN2) [9, 17]: 0.35; LN1/LN2 ratio (Kd LN1/Kd LN2) [10, 17]: 0.44; LN1/LN2 ratio (Kd LN1/Kd LN2) ([11]; hGal3-E165A, based on Kd BI values, LN1 versus LN2): 1.22 and 1.22 ^2; LN1/LN2 ratio, previous study ([13]; LN1 versus LN2): 2.7; LN1/LN2 binding preference [13]: prominent LN1-preferred binding activity
CC(=O)N[C@@H]1[C@@H](O)[C@H](O[C@@H]2O[C@H](CO)[C@H](O)[C@H](O)[C@H]2O)[C@@H](CO)O[C@H]1O [LN2, Galβ1-4GlcNAc]	19.7 µM	0.33	3.59	~410 µM and 410 µM	~33 µM and 33 µM	150 µM	8.5	280	lose its binding ability	
CC(=O)N[C@H]1C(O)O[C@H](CO)[C@H](O)[C@@H]1O[C@@H]1O[C@H](CO)[C@H](O)[C@H](O)[C@H]1O (stereo partly shown) [TF antigen, Galβ1-3GalNAc]										Binding with TF antigen [14]: binds; Binding with TF antigen [15]: not
CC(=O)N[C@H]1[C@H]([C@H](O)[C@H](O)CO)O[C@@](O[C@H]2[C@@H](O)[C@@H](CO)O[C@@H](O[C@H]3[C@H](O)[C@@H](NC(C)=O)C(O)O[C@@H]3CO)[C@@H]2O)(C(=O)O)C[C@@H]1O (stereo partly drawn) [α3-SiaLacNAc]										Increase of hGal1 binding [1]: 10 fold

Reference: paper PMC4422656, “Structural Basis Underlying the Binding Preference of Human Galectins-1, -3 and -7 for Galβ1-3/4GlcNAc” (PLoS ONE, 2015)
